“Also recorded” adds a separate entry of the source.
Columns and labels:
COL17A1 = COL17A1 expression in human epidermal keratinocytes by high content imaging (HCS); type: cell-based
Protocol: The present inventors further searched for substances that induce or maintain the expression of COL17A1. Human epidermal keratinocytes were seeded in 384-well plates, cultured for 48 hours after addition of reagents, immunostained with an anti-COL17A1 antibody and a fluorescently labeled secondary antibody, and then the fluorescence intensity per cell was detected using a high content imaging system (HCS: High Content Screening). In addition to cell counting with DAPI, the expression level of COL17A1 was quantified.

[1] = tested on: full thickness wounds in the skin of rodent tails; assay: Full thickness wound healing in tail skin; type: in vivo, mice; details: day 0, day 14, day 21 (FIG. 12)
Protocol: To test the above hypothesis, the present inventors performed a full-layer wound healing experiment using the tail skin of aged wild-type mice. […] Forced expression of hCOL17A1 by basal layer keratinocytes in mice also promoted wound healing (FIG. 12). […] To confirm the beneficial effects in vivo, these drugs were administered to full thickness wounds in the skin of rodent tails.

[2] = tested on: skin damage induced by erlotinib; assay: Improvement of skin damage caused by erlotinib administration, TEWL (Example 10); type: in vivo, C57BL6N mice; details: 200 μM applied on the back once a day, five times a week; 7 weeks old or 6 months old mice; day 7 / day 12 (FIG. 19)
Protocol: Female […] mice (7 weeks old or 6 months old) were acclimatized to the experimental environment, and then hair was removed from their back under anesthesia. […] The control non-administered group received the 0.5% methylcellulose solution of the solvent in the same way. The control group applied with the solvent and the group applied with 200 μM apocynin received an aqueous solution of each preparation once a day, five times a week on the back. To the control solvent application group the solvent (50% ethanol/PBS) of apocynin was similarly applied.

[3] = tested on: upper cervical-dorsal skin of aged mice; assay: Irritant skin disorder (dry eczema and alopecia) model induced by 100% ethanol in aged mice; type: in vivo; details: continuously applied, aged mice (FIG. 20)
Source text: In the irritant skin disorder (dry eczema and alopecia) model induced by a high concentration of ethanol (100%) in the upper cervical-dorsal skin of aged mice, a substance (apocynin) that promotes the cell competitive ability of epidermal stem cells was continuously applied.

In the case of `COc1cc(C(C)=O)ccc1O` [Apocynin], the “COL17A1 expression level (control ratio)” value (COL17A1; Table 1, human epidermal keratinocytes, 48 hours after addition of reagents, fluorescence intensity per cell) is reported as “⊚ (one double circle (⊚) represents a 1.2-fold or greater increase)”, the “COL17A1 expression / amount of COL17A1 in cultured keratinocytes compared to the control” value (COL17A1; in vitro, HCS (FIG. 15)) is reported as “significantly increased; also recorded: maintain or induce the COL17A1 expression; also recorded: induce the COL17A1 expression” and the “wound repair (unrepaired wound area)” value [1] is reported as “significantly accelerated; also recorded: significantly promote the wound repair process”. For the same compound, the “TEWL under erlotinib administration” value [2] was “significantly decreased” and the skin damage [3] was “significantly reduced”.
